In patent US20080318970A1, “Treatment of Infectious Diseases” (priority 2004, published 2008):

Test system: S. aureus E45
Assay: Checkerboard combination study (FIC index)
Type: cell-based, Staphylococcus aureus
Settings: isolate resistant (R)
Experimental: Staphylococcus aureus E45 MRSA. Clinical isolate. Resistant to methicillin. Susceptible to teicoplanin chloramphenicol, fosfomycin, netilmicin and vancomycin.
The synergistic effect was studied by checkerboard combination studies exposing cells to 0-64 μg/ml anti-infective agent in the absence or presence of trans-flupenthixol, cis-flupenthixol or trans-clopenthixol. Each experiment was repeated in tripleduplicate. MIC values represent the mean values of two separate experiments,
A log phase culture of bacteria was diluted with fresh pre-warmed medium and adjusted to a defined OD at 600 nm in order to give a final concentration of 1×10^4 bacteria/ml medium in each well. Each chemosensitising compound was added to the bacterial culture in the wells in two-fold dilutions in order to give final concentrations ranging from 0 to 8 μg/ml. Anti-infective agent was added to the bacterial culture in the wells in two-fold dilutions in order to give final concentrations ranging from 0 to 64 μg/ml Trays were incubated at 37° C. for 16 h. Wells were assessed visually for growth. The Fractional Inhibitory Concentration (FIC) was calculated for each anti-infective agent alone and in combination with trans-flupenthixol, cis-flupenthixol or trans-clopenthixol. The following formulae were used to calculate the FIC index:
FIC=FICchemosensitising compound+FICanti-infective agent
FICchemosensitising compound=(MICchemosensitising compound+anti-infective agent)/(MICchemosensitising compound)
FICanti-infective agent=(MICanti-infective agent+chemosensitising compound/(MICanti-Infective agent)
Synergy was defined as a FIC index of <0.5.

## OCCN1CCN(CC/C=C2\c3ccccc3Sc3ccc(Cl)cc32)CC1 [trans-clopenthixol]
anti-infective agent Dicloxacillin
  FIC index: 0.06
anti-infective agent Fucidic acid
  FIC index: 0.06
